The results in this text go back to patent US11040975B2, “Carbocyclic nucleoside reverse transcriptase inhibitors” (Merck Sharp & Dohme Corp., priority 2017, dated 2021).

The term IC50 denotes the concentration that gives 50% inhibition.

The test system of one experiment is HIV-1 (H9IIIB virus). Nature of the experiment: Viking assay: antiviral potency in a multiple round HIV-1 infection assay (MT4-GFP cells). The format is cell-based. The conditions noted are these: Human immunodeficiency virus 1, MT4-GFP cells, 10% normal human serum; inhibition of reproductive ratio R0; read-out: Viking, IC50 (10% NHS). As for the experimental part:
Assessing Antiviral Potency in a Multiple Round HIV-1 Infection Assay.
HIV-1 replication was monitored using MT4-gag-GFP clone D3 (hereafter designate MT4-GFP), which are MT-4 cells modified to harbor a GFP reporter gene, the expression of which is dependent on the HIV-1 expressed proteins tat and rev. Productive infection of an MT4-GFP cell with HIV-1 results in GFP expression approximately 24h post-infection.
MT4-GFP cells were maintained at 37° C./5% CO2/90% relative humidity in RPMI 1640 supplemented with 10% fetal bovine serum, 100 U/mL penicillin/streptomycin, and 400 μg/mL G418 to maintain the reporter gene. For infections, MT4-GFP cells were placed in the same medium lacking G418 and infected overnight with H9IIIB virus at an approximate multiplicity of infection of 0.01 in the same incubation conditions. Cells were then washed and re-suspended in either RPMI 1640 containing 10% or 50% normal human serum at 1.6×10^5 cells/mL. Compound plates were prepared by dispensing compounds dissolved in DMSO into wells of 384 well poly D lysine-coated plates ([…]) using an ECHO acoustic dispenser. Each compound was tested in a 10 point serial 3-fold dilution (typical final concentrations: 8.4 μM-0.43 nM). Controls included no inhibitor (DMSO only) and a combination of three antiviral agents (efavirenz, indinavir, and an integrase strand transfer inhibitor at final concentrations of 4 μM each). Cells were added (50 μL/well) to compound plates and the infected cells were maintained at 37° C./5% CO2/90% relative humidity.
Infected cells were quantified at two time points, ˜48h and ˜72h post-infection, by counting the number of green cells in each well using an Acumen eX3 scanner. The increase in the number of green cells over ˜24h period gives the reproductive ratio, R0, which is typically 5-15 and has been shown experimentally to be in logarithmic phase (data not shown). Inhibition of R0 is calculated for each well, and IC50s determined by non-linear 4-parameter curve fitting.
In the case of `C#C[C@]1(CO[P@@](=O)(N[C@@H](C)C(=O)OC(C)C)Oc2ccccc2)C[C@@H](n2cnc3c(OCC)nc(N)nc32)C[C@@H]1O` (mixture of isomers) [Example 39A and 39B, Isopropyl ((S)-(((1S,2S,4R)-4-(2-amino-6-ethoxy-9H-purin-9-yl)-1-ethynyl-2-hydroxycyclopentyl)methoxy)(phenoxy)phosphoryl)-L-alaninate and Isopropyl ((S)-(((1R,2R,4S)-4-(2-amino-6-ethoxy-9H-purin-9-yl)-1-ethynyl-2-hydroxycyclopentyl)methoxy)(phenoxy)phosphoryl)-L-alaninate], the IC50 is 27.1 nM.
In the case of `C#C[C@]1(CO)C[C@@H](n2cnc3c(Cl)nc(F)nc32)C[C@@H]1O` (racemic) [Example (+/−) 12, (1S,2S,4R)-4-(6-chloro-2-fluoro-9H-purin-9-yl)-2-ethynyl-2-(hydroxymethyl)cyclopentan-1-ol and (1R,2R,4S)-4-(6-chloro-2-fluoro-9H-purin-9-yl)-2-ethynyl-2-(hydroxymethyl)cyclopentan-1-ol], the IC50 was > 42000 nM.
Consider `C#C[C@]1(CO)C[C@@H](n2ccc3c(Cl)nc(Cl)nc32)C[C@@H]1O` (racemic) [Example (+/−) 21, (1S,2S,4R)-4-(2,4-dichloro-7H-pyrrol[2,3-d]pyrimidin-7-yl)-2-ethynyl-2-(hydroxymethyl)cyclopentan-1-ol and (1R,2R,4S)-4-(2,4-dichloro-7H-pyrrolo[2,3-d]pyrimidin-7-yl)-2-ethynyl-2-(hydroxymethyl)cyclopentan-1-ol], for which the IC50 is > 42000 nM.
As for `C#C[C@]1(CO)C[C@@H](n2ccc3c(N)nc(Cl)nc32)C[C@@H]1O` (racemic) [Example (+/−) 22, (1S,2S,4R)-4-(4-amino-2-chloro-7H-pyrrolo[2,3-d]pyrimidin-7-yl)-2-ethynyl-2-(hydroxymethyl)cyclopentan-1-ol and (1R,2R,4S)-4-(4-amino-2-chloro-7H-pyrrolo[2,3-d]pyrimidin-7-yl)-2-ethynyl-2-(hydroxymethyl)cyclopentan-1-ol], the IC50 came to 22200 nM.
`C#C[C@]1(CO)C[C@@H](n2cnc3c(=O)[nH]c(N)nc32)C[C@@H]1O` (racemic) [Example (+/−) 26, 2-amino-9-((1R,3S,4S)-3-ethynyl-4-hydroxy-3-(hydroxymethyl)cyclopentyl)-1,9-dihydro-6H-purin-6-one and 2-amino-9-((1S,3R,4R)-3-ethynyl-4-hydroxy-3-(hydroxymethyl)cyclopentyl)-1,9-dihydro-6H-purin-6-one]: the IC50 turned out to be 195 nM.
As for `C#C[C@]1(CO)C[C@@H](n2cnc3c(OCC)nc(N)nc32)C[C@@H]1O` (racemic) [Example (+/−) 30, (1S,2S,4R)-4-(2-amino-6-ethoxy-9H-purin-9-yl)-2-ethynyl-2-(hydroxymethyl)cyclopentan-1-ol and (1R,2R,4S)-4-(2-amino-6-ethoxy-9H-purin-9-yl)-2-ethynyl-2-(hydroxymethyl)cyclopentan-1-ol], the IC50 is 614 nM.
With `C#C[C@]1(CO)C[C@@H](n2cc(C)c(=O)[nH]c2=O)C[C@@H]1O` (racemic) [Example (+/−) 34, 1-((1R,3S,4S)-3-ethynyl-4-hydroxy-3-(hydroxymethyl)cyclopentyl)-5-methylpyrimidine-2,4(1H,3H)-dione and 1-((1S,3R,4R)-3-ethynyl-4-hydroxy-3-(hydroxymethyl)cyclopentyl)-5-methylpyrimidine-2,4(1H,3H)-dione], the IC50 was > 42000 nM.
In the case of `C#C[C@]1(CO)C[C@@H](n2ccc(N)nc2=O)C[C@@H]1O` (racemic) [Example (+/−) 38, 4-amino-1-((1R,3S,4S)-3-ethynyl-4-hydroxy-3-(hydroxymethyl)cyclopentyl)pyrimidin-2(1H)-one and 4-amino-1-((1S,3R,4R)-3-ethynyl-4-hydroxy-3-(hydroxymethyl)cyclopentyl)pyrimidin-2(1H)-one], the IC50 was > 42000 nM.
Same read-out and setting: for `N#C[C@]1(CO)C[C@@H](n2cnc3c(=O)[nH]c(N)nc32)C[C@@H]1O` (racemic) [Example (+/−) 61, (1S,2S,4R)-4-(2-amino-6-oxo-1,6-dihydro-9H-purin-9-yl)-2-hydroxy-1-(hydroxymethyl)cyclopentane-1-carbonitrile and (1R,2R,4S)-4-(2-amino-6-oxo-1,6-dihydro-9H-purin-9-yl)-2-hydroxy-1-(hydroxymethyl)cyclopentane-1-carbonitrile] the value was 998 nM; for `N#C[C@]1(CO)C[C@@H](n2ccc(N)nc2=O)C[C@@H]1O` (racemic) [Example (+/−) 65, (1S,2S,4R)-4-(4-amino-2-oxopyrimidin-1(2H)-yl)-2-hydroxy-1-(hydroxymethyl)cyclopentane-1-carbonitrile and (1R,2R,4S)-4-(4-amino-2-oxopyrimidin-1(2H)-yl)-2-hydroxy-1-(hydroxymethyl)cyclopentane-1-carbonitrile], > 42000 nM.
For the molecule `Cc1cn([C@H]2C[C@H](O)[C@@](C#N)(CO)C2)c(=O)[nH]c1=O` (racemic) [Example (+/−) 69, (1S,2S,4R)-2-hydroxy-1-(hydroxymethyl)-4-(5-methyl-2,4-dioxo-3,4-dihydropyrimidin-1(2H)-yl)cyclopentane-1-carbonitrile and (1R,2R,4S)-2-hydroxy-1-(hydroxymethyl)-4-(5-methyl-2,4-dioxo-3,4-dihydropyrimidin-1(2H)-yl)cyclopentane-1-carbonitrile], the IC50 came out at 16000 nM.
For `C#C[C@]1(CO)C[C@@H](n2cnc3c(N)nc(Cl)nc32)C[C@@H]1O` (single isomer, unassigned) [Example 18B, (1S,2S,4R)-4-(6-amino-2-chloro-9H-purin-9-yl)-2-ethynyl-2-(hydroxymethyl)cyclopentan-1-ol or (1R,2R,4S)-4-(6-amino-2-chloro-9H-purin-9-yl)-2-ethynyl-2-(hydroxymethyl)cyclopentan-1-ol], the IC50 stood at 11600 nM.
Regarding `C#C[C@@]1(CO[P@@](=O)(N[C@@H](C)C(=O)OC(C)C)Oc2ccccc2)C[C@H](n2cnc3c(OCC)nc(N)nc32)C[C@H]1O` (single isomer, unassigned) [Example 39A, Isopropyl ((S)-(((1S,2S,4R)-4-(2-amino-6-ethoxy-9H-purin-9-yl)-1-ethynyl-2-hydroxycyclopentyl)methoxy)(phenoxy)phosphoryl)-L-alaninate or Isopropyl ((S)-(((1R,2R,4S)-4-(2-amino-6-ethoxy-9H-purin-9-yl)-1-ethynyl-2-hydroxycyclopentyl)methoxy)(phenoxy)phosphoryl)-L-alaninate], the IC50 came to 484 nM.
The same measure, in the same setting: in the case of `C#C[C@]1(CO[P@@](=O)(N[C@@H](C)C(=O)OC(C)C)Oc2ccccc2)C[C@@H](n2cnc3c(OCC)nc(N)nc32)C[C@@H]1O` (single isomer, unassigned) [Example 39B, Isopropyl ((S)-(((1S,2S,4R)-4-(2-amino-6-ethoxy-9H-purin-9-yl)-1-ethynyl-2-hydroxycyclopentyl)methoxy)(phenoxy)phosphoryl)-L-alaninate or Isopropyl ((S)-(((1R,2R,4S)-4-(2-amino-6-ethoxy-9H-purin-9-yl)-1-ethynyl-2-hydroxycyclopentyl)methoxy)(phenoxy)phosphoryl)-L-alaninate] it was 5.93 nM; in that of `N#C[C@]1(CO)C[C@@H](n2cnc3c(N)nc(F)nc32)C[C@@H]1O` (single isomer, unassigned) [Example 73A, (1S,2S,4R)-4-(6-amino-2-fluoro-9H-purin-9-yl)-2-hydroxy-1-(hydroxymethyl)cyclopentane-1-carbonitrile or (1R,2R,4S)-4-(6-amino-2-fluoro-9H-purin-9-yl)-2-hydroxy-1-(hydroxymethyl)cyclopentane-1-carbonitrile], > 42000 nM.

Staying with this experiment, now noted: MT4-GFP cells, 10% normal human serum; inhibition of reproductive ratio R0; read-out: Viking, IC50 (10% NHS).
Take `C#C[C@]1(CO)C[C@@H](n2cnc3c(=O)[nH]c(N)nc32)C[C@@H]1O` (single isomer, unassigned) [Example 26A, 2-amino-9-((lR,3S,4S)-3-ethynyl-4-hydroxy-3-(hydroxymethyl)cyclopentyl)-1,9-dihydro-6H-purin-6-one or 2-amino-9-((1S,3R,4R)-3-ethynyl-4-hydroxy-3-(hydroxymethyl)cyclopentyl)-1,9-dihydro-6H-purin-6-one]: the IC50 was > 42000 nM.
Consider `C#C[C@]1(CO)C[C@@H](n2cnc3c(=O)[nH]c(N)nc32)C[C@@H]1O` (single isomer, unassigned) [Example 26B, 2-amino-9-((1R,3S,4S)-3-ethynyl-4-hydroxy-3-(hydroxymethyl)cyclopentyl)-1,9-dihydro-6H-purin-6-one or 2-amino-9-((1S,3R,4R)-3-ethynyl-4-hydroxy-3-(hydroxymethyl)cyclopentyl)-1,9-dihydro-6H-purin-6-one], for which the IC50 amounted to 142 nM.
